Test system: OVCAR-5 complex spheroids with HUVEC/MSC, viability, % test/control
Test: Anticancer human tumor OVCAR-5 cell line growth inhibition [AhR];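 also: spheroids exposed to compounds for 7 days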;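 as to viability, T/C: 100% = DMSO vehicle control wells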
Details: for IC50: curve of first compound; for viability, T/C: stronger effect = lower value
Procedure, shortened: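 Complex tumor spheroids co-cultured with HUVEC and human MSC stroma; AhR antagonists tested in combination with standard-of-care and investigational agents. Top concentration at or near clinical Cmax (else 10 microM), half-log dilutions; growth expressed as percent test/control.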

[1] = second compound 0.1 µM, first compound 0.0316 µM
[2] = second compound 0.1 µM, first compound 0.1 µM
[3] = second compound 0.1 µM, first compound 0.316 µM
[4] = second compound 0.1 µM, first compound 1 µM
[5] = second compound 0.1 µM, first compound 3.16 µM
[6] = second compound 0.1 µM, first compound 10 µM
[7] = second compound 0.316 µM, first compound 0.0316 µM
[8] = second compound 0.316 µM, first compound 0.1 µM
[9] = second compound 0.316 µM, first compound 0.316 µM
[10] = second compound 0.316 µM, first compound 1 µM
[11] = second compound 0.316 µM, first compound 3.16 µM
[12] = second compound 0.316 µM, first compound 10 µM
[13] = second compound 1 µM, first compound 0.0316 µM
[14] = second compound 1 µM, first compound 0.1 µM
[15] = second compound 1 µM, first compound 0.316 µM
[16] = second compound 1 µM, first compound 1 µM
[17] = second compound 1 µM, first compound 3.16 µM
[18] = second compound 1 µM, first compound 10 µM
[19] = second compound 3.16 µM, first compound 0.0316 µM
[20] = second compound 3.16 µM, first compound 0.1 µM
[21] = second compound 3.16 µM, first compound 0.316 µM
[22] = second compound 3.16 µM, first compound 1 µM
[23] = second compound 3.16 µM, first compound 3.16 µM
[24] = second compound 3.16 µM, first compound 10 µM
[25] = second compound 10 µM, first compound 0.0316 µM
[26] = second compound 10 µM, first compound 0.1 µM
[27] = second compound 10 µM, first compound 0.316 µM
[28] = second compound 10 µM, first compound 1 µM
[29] = second compound 10 µM, first compound 3.16 µM
[30] = second compound 10 µM, first compound 10 µM
[31] = second compound 0.1 µM, first compound 0.00949 µM
[32] = second compound 0.1 µM, first compound 0.03 µM
[33] = second compound 0.1 µM, first compound 0.0949 µM
[34] = second compound 0.1 µM, first compound 0.3 µM
[35] = second compound 0.316 µM, first compound 0.00949 µM
[36] = second compound 0.316 µM, first compound 0.03 µM
[37] = second compound 0.316 µM, first compound 0.0949 µM
[38] = second compound 0.316 µM, first compound 0.3 µM
[39] = second compound 1 µM, first compound 0.00949 µM
[40] = second compound 1 µM, first compound 0.03 µM
[41] = second compound 1 µM, first compound 0.0949 µM
[42] = second compound 1 µM, first compound 0.3 µM
[43] = second compound 3.16 µM, first compound 0.00949 µM
[44] = second compound 3.16 µM, first compound 0.03 µM
[45] = second compound 3.16 µM, first compound 0.0949 µM
[46] = second compound 3.16 µM, first compound 0.3 µM
[47] = second compound 10 µM, first compound 0.00949 µM
[48] = second compound 10 µM, first compound 0.03 µM
[49] = second compound 10 µM, first compound 0.0949 µM
[50] = second compound 10 µM, first compound 0.3 µM

SMILES: CC1(C)CCC(CN2CCN(c3ccc(C(=O)NS(=O)(=O)c4ccc(NCC5CCOCC5)c([N+](=O)[O-])c4)c(Oc4cnc5[nH]ccc5c4)c3)CC2)=C(c2ccc(Cl)cc2)C1 + Cc1ccccc1N=Nc1ccc(NC(=O)c2ccnn2C)c(C)c1
- IC50 (second compound 0.1 µM): > 10 µM
- IC50 (second compound 0.316 µM): > 10 µM
- IC50 (second compound 1 µM): > 10 µM
- IC50 (second compound 3.16 µM): > 10 µM
- IC50 (second compound 10 µM): > 10 µM
- viability, T/C [1]: 102%
- viability, T/C [2]: 101%
- viability, T/C [3]: 102%
- viability, T/C [4]: 95.7%
- viability, T/C [5]: 99.2%
- viability, T/C [6]: 52.7%
- viability, T/C [7]: 102%
- viability, T/C [8]: 106%
- viability, T/C [9]: 106%
- viability, T/C [10]: 103%
- viability, T/C [11]: 105%
- viability, T/C [12]: 53%
- viability, T/C [13]: 102%
- viability, T/C [14]: 113%
- viability, T/C [15]: 107%
- viability, T/C [16]: 112%
- viability, T/C [17]: 104%
- viability, T/C [18]: 56.9%
- viability, T/C [19]: 103%
- viability, T/C [20]: 115%
- viability, T/C [21]: 108%
- viability, T/C [22]: 112%
- viability, T/C [23]: 109%
- viability, T/C [24]: 54.2%
- viability, T/C [25]: 109%
- viability, T/C [26]: 107%
- viability, T/C [27]: 105%
- viability, T/C [28]: 108%
- viability, T/C [29]: 105%
- viability, T/C [30]: 57.3%

SMILES: CCN(c1cc(-c2ccc(CN3CCOCC3)cc2)cc(C(=O)NCc2c(C)cc(C)[nH]c2=O)c1C)C1CCOCC1 + Cc1ccccc1N=Nc1ccc(NC(=O)c2ccnn2C)c(C)c1
- IC50 (second compound 0.1 µM): > 3 µM
- IC50 (second compound 0.316 µM): > 3 µM
- IC50 (second compound 1 µM): > 3 µM
- IC50 (second compound 3.16 µM): > 3 µM
- IC50 (second compound 10 µM): > 3 µM
- viability, T/C [31]: 105%
- viability, T/C [32]: 106%
- viability, T/C [33]: 102%
- viability, T/C [34]: 101%
- viability, T/C (second compound 0.1 µM, first compound 0.949 µM): 95%
- viability, T/C (second compound 0.1 µM, first compound 3 µM): 101%
- viability, T/C [35]: 107%
- viability, T/C [36]: 109%
- viability, T/C [37]: 107%
- viability, T/C [38]: 102%
- viability, T/C (second compound 0.316 µM, first compound 0.949 µM): 102%
- viability, T/C (second compound 0.316 µM, first compound 3 µM): 103%
- viability, T/C [39]: 112%
- viability, T/C [40]: 110%
- viability, T/C [41]: 111%
- viability, T/C [42]: 115%
- viability, T/C (second compound 1 µM, first compound 0.949 µM): 107%
- viability, T/C (second compound 1 µM, first compound 3 µM): 110%
- viability, T/C [43]: 115%
- viability, T/C [44]: 114%
- viability, T/C [45]: 115%
- viability, T/C [46]: 109%
- viability, T/C (second compound 3.16 µM, first compound 0.949 µM): 109%
- viability, T/C (second compound 3.16 µM, first compound 3 µM): 112%
- viability, T/C [47]: 106%
- viability, T/C [48]: 103%
- viability, T/C [49]: 104%
- viability, T/C [50]: 105%
- viability, T/C (second compound 10 µM, first compound 0.949 µM): 99.9%
- viability, T/C (second compound 10 µM, first compound 3 µM): 98.2%

SMILES: Cn1ncnc1C1c2n[nH]c(=O)c3cc(F)cc(c23)NC1c1ccc(F)cc1 (stereo not given) + Cc1ccccc1N=Nc1ccc(NC(=O)c2ccnn2C)c(C)c1
- IC50 (second compound 0.1 µM): > 0.1 µM
- IC50 (second compound 0.316 µM): > 0.1 µM
- IC50 (second compound 1 µM): > 0.1 µM
- IC50 (second compound 3.16 µM): > 0.1 µM
- IC50 (second compound 10 µM): > 0.1 µM
- viability, T/C (second compound 0.1 µM, first compound 0.000316 µM): 105%
- viability, T/C (second compound 0.1 µM, first compound 0.001 µM): 107%
- viability, T/C (second compound 0.1 µM, first compound 0.00316 µM): 101%
- viability, T/C (second compound 0.1 µM, first compound 0.01 µM): 96.2%
- viability, T/C [1]: 94.5%
- viability, T/C [2]: 90.9%
- viability, T/C (second compound 0.316 µM, first compound 0.000316 µM): 108%
- viability, T/C (second compound 0.316 µM, first compound 0.001 µM): 110%
- viability, T/C (second compound 0.316 µM, first compound 0.00316 µM): 104%
- viability, T/C (second compound 0.316 µM, first compound 0.01 µM): 102%
- viability, T/C [7]: 96.6%
- viability, T/C [8]: 98.8%
- viability, T/C (second compound 1 µM, first compound 0.000316 µM): 111%
- viability, T/C (second compound 1 µM, first compound 0.001 µM): 113%
- viability, T/C (second compound 1 µM, first compound 0.00316 µM): 111%
- viability, T/C (second compound 1 µM, first compound 0.01 µM): 102%
- viability, T/C [13]: 101%
- viability, T/C [14]: 102%
- viability, T/C (second compound 3.16 µM, first compound 0.000316 µM): 110%
- viability, T/C (second compound 3.16 µM, first compound 0.001 µM): 116%
- viability, T/C (second compound 3.16 µM, first compound 0.00316 µM): 118%
- viability, T/C (second compound 3.16 µM, first compound 0.01 µM): 109%
- viability, T/C [19]: 101%
- viability, T/C [20]: 108%
- viability, T/C (second compound 10 µM, first compound 0.000316 µM): 106%
- viability, T/C (second compound 10 µM, first compound 0.001 µM): 105%
- viability, T/C (second compound 10 µM, first compound 0.00316 µM): 102%
- viability, T/C (second compound 10 µM, first compound 0.01 µM): 105%
- viability, T/C [25]: 102%
- viability, T/C [26]: 102%

SMILES: NS(=O)(=O)OCC1CC(n2ccc3c(NC4CCc5ccccc54)ncnc32)CC1O (stereo not given) + Cc1ccccc1N=Nc1ccc(NC(=O)c2ccnn2C)c(C)c1
- IC50 (second compound 0.1 µM): 0.201 µM
- IC50 (second compound 0.316 µM): 0.178 µM
- IC50 (second compound 1 µM): 0.141 µM
- IC50 (second compound 3.16 µM): 0.0963 µM
- IC50 (second compound 10 µM): 0.0946 µM
- viability, T/C [1]: 96.4%
- viability, T/C [2]: 66.9%
- viability, T/C [3]: 40.8%
- viability, T/C [4]: 16.2%
- viability, T/C [5]: 9.98%
- viability, T/C [6]: 10.5%
- viability, T/C [7]: 88.3%
- viability, T/C [8]: 63.3%
- viability, T/C [9]: 37.8%
- viability, T/C [10]: 14.3%
- viability, T/C [11]: 11.1%
- viability, T/C [12]: 9.31%
- viability, T/C [13]: 82.5%
- viability, T/C [14]: 55.6%
- viability, T/C [15]: 36.2%
- viability, T/C [16]: 14.2%
- viability, T/C [17]: 9.92%
- viability, T/C [18]: 9.81%
- viability, T/C [19]: 66.6%
- viability, T/C [20]: 47.7%
- viability, T/C [21]: 32.2%
- viability, T/C [22]: 12.7%
- viability, T/C [23]: 9.52%
- viability, T/C [24]: 8.47%
- viability, T/C [25]: 69.5%
- viability, T/C [26]: 47.7%
- viability, T/C [27]: 29.2%
- viability, T/C [28]: 11%
- viability, T/C [29]: 7.66%
- viability, T/C [30]: 7.56%

SMILES: Nc1ncn(C2CC(O)C(CO)S2)c(=O)n1 (stereo not given) + Cc1ccccc1N=Nc1ccc(NC(=O)c2ccnn2C)c(C)c1
- IC50 (second compound 0.1 µM): > 0.3 µM
- IC50 (second compound 0.316 µM): > 0.3 µM
- IC50 (second compound 1 µM): > 0.3 µM
- IC50 (second compound 3.16 µM): > 0.3 µM
- IC50 (second compound 10 µM): > 0.3 µM
- viability, T/C (second compound 0.1 µM, first compound 0.000949 µM): 105%
- viability, T/C (second compound 0.1 µM, first compound 0.003 µM): 108%
- viability, T/C [31]: 105%
- viability, T/C [32]: 101%
- viability, T/C [33]: 87.4%
- viability, T/C [34]: 79%
- viability, T/C (second compound 0.316 µM, first compound 0.000949 µM): 113%
- viability, T/C (second compound 0.316 µM, first compound 0.003 µM): 109%
- viability, T/C [35]: 112%
- viability, T/C [36]: 106%
- viability, T/C [37]: 86.5%
- viability, T/C [38]: 77.8%
- viability, T/C (second compound 1 µM, first compound 0.000949 µM): 114%
- viability, T/C (second compound 1 µM, first compound 0.003 µM): 115%
- viability, T/C [39]: 113%
- viability, T/C [40]: 108%
- viability, T/C [41]: 95%
- viability, T/C [42]: 82.5%
- viability, T/C (second compound 3.16 µM, first compound 0.000949 µM): 112%
- viability, T/C (second compound 3.16 µM, first compound 0.003 µM): 112%
- viability, T/C [43]: 114%
- viability, T/C [44]: 110%
- viability, T/C [45]: 95.6%
- viability, T/C [46]: 80%
- viability, T/C (second compound 10 µM, first compound 0.000949 µM): 107%
- viability, T/C (second compound 10 µM, first compound 0.003 µM): 111%
- viability, T/C [47]: 108%
- viability, T/C [48]: 108%
- viability, T/C [49]: 89.2%
- viability, T/C [50]: 78.8%
